The subject of series [1] is Escherichia coli ATCC 25922. As to the kind of experiment: Antimicrobial assay (MIC), E. coli. The conditions noted are these: overnight at 37° C. The format is cell-based. How it is done:
Antimicrobial assay. Two bacterial strains (Escherichia coli ATCC 25922 and Enterococcus faecalis ATCC 29212) were inoculated on heart infusion agar with 5% sheep blood and incubated aerobically overnight at 37° C. From the pure cultures, suspensions were made in saline to a density of 0.5 McFarland. These suspensions were diluted ten-fold in Mueller Hinton II broth, resulting in a final inoculum of approximately 10^7 cfu/ml.
Standard 96-well microtiter trays were filled with 100 ill of two-fold dilutions of peptide in physiologic salt solution in each well, resulting in the following concentration range: 4000, 2000, 1000, 500, 250, 125, 62.25, 31.63, 15.82, 7.96 and 0 μg/ml. The trays in column 12 were filled with 200 μl MH II broth (negative control).
Columns 1-11 of the microtiter trays were filled with 100 μl of the final inoculum of the bacterial suspensions, thus diluting the concentrations of the peptide two fold, resulting in the following peptide concentration range in the wells: 2000, 1000, 500, 250, 125, 62.25, 31.63, 15.82, 7.96, 3.98 and 0 μg/ml. In rows B, C and D, 100 μl of the final inoculum of E. coli and, in rows E, F and G, 100 μl of the final inoculum of E. faecalis was pipetted. The final bacterial concentration was approximately 5×10^5 cfu/well. All trays were sealed and incubated overnight at 37° C. After incubation, the microtiter trays were inspected visually for bacterial growth and the absorbance of the cultures at 630 nm (A630) was determined with an ELISA-reader. […] The experiment was performed independently in triplicate. The test was repeated again in triplicate after two days with the final peptide concentration range in the wells: 5000, 2500, 1250, 625, 312.5, 156.25, 78.12, 39.06, 19.58, 9.79, 4.88, 2.44 and 1.22 μg/ml.

Another series deals with guinea pig erythrocytes. The series is described as follows: Hemolytic assay, guinea pig erythrocytes. Type of series: cell-based. The conditions noted are these: 1% v/v, one hour at 37° C. How it is done: Hemolytic assay. Hemolytic activity of various peptide concentrations was determined by incubation with human, guinea pig or sheep erythrocyte suspensions (final erythrocyte concentration, 1% v/v) for one hour at 37° C. After cooling and centrifugation, the optical density of the supernatants were measured at 540 nm. Peptide concentrations causing 50% hemolysis (EC50) were derived from the dose-response curves.

The test system of series [2] is live cells in suspension or subconfluent monolayers. The format is cell-based.
For series [3], the system named is fixed cells (Ebtr, SK6, sf-21, Caco-2 and HT-29). Type of series: cell-based.
The next series has as its system skin of a live pig. The conditions noted are these: transdermal transport; skin model not given. How it is done: Transdermal transport. The potential of the an E^rns peptide to penetrate the skin was tested by applying 150 μl 0.3-4 mM of biotinylated peptide in a chamber containing an isolated piece of “fresh” human breast skin or in a chamber which was glued on the skin of a live pig, or applying 50 μl of peptide solution on the skin with a cotton wool tip, or applying 50 μl of a peptide solution mixed with 50 μl of contact gel on the skin for 30 minutes to 120 minutes. After the incubation time, the pig was killed, the skin was cleaned and biopsied, and a biopsy was frozen in liquid nitrogen. Cryosections of the skin samples were fixed on microscopic slides with acetone and incubated with streptavidin-FITC ( 1/100) for 30 minutes.

[4] abbreviates: Table 9, lower concentration = higher translocation activity.

We go through nine compounds from patent US7435721B2, “Transport peptides such as C-terminal Erns peptide and analogues thereof” (Pepscan Systems B.V., priority 2000, dated 2008).

In brackets after ≈: the same amount, converted by molar mass. Where two headings read alike, the source gives them in different places. Residues, ends and D or L forms follow the SMILES beside them. *: point of attachment. Biotin = O=C1N[C@H]2[C@H](CS[C@H]2CCCCC(=O)*)N1

For `CC[C@H](C)[C@H](NC(=O)[C@H](CCCNC(=N)N)NC(=O)[C@H](CC(C)C)NC(=O)[C@H](CCC(N)=O)NC(=O)[C@H](CCCNC(=N)N)NC(=O)CNC(=O)[C@H](CC(C)C)NC(=O)[C@H](Cc1c[nH]c2ccccc12)NC(=O)[C@H](CO)NC(=O)[C@@H](NC(=O)[C@@H](NC(=O)[C@H](CCCNC(=N)N)NC(=O)[C@H](C)NC(=O)[C@H](C)NC(=O)CNC(=O)[C@H](CCC(N)=O)NC(=O)[C@H](CCCNC(=N)N)NC(=O)[C@H](C)NC(=O)[C@H](CC(N)=O)NC(=O)[C@H](CCC(=O)O)NC(=O)CCCC[C@@H]1SC[C@@H]2NC(=O)N[C@@H]21)C(C)C)[C@@H](C)O)C(=O)N[C@@H](C)C(=O)NCC(=O)N[C@@H](CCCCN)C(=O)N[C@@H](CCCNC(=N)N)C(=O)N[C@@H](CC(C)C)C(=O)N[C@@H](CCC(=O)O)C(=O)NCC(=O)N[C@@H](CCCNC(=N)N)C(=O)N[C@@H](CO)C(=O)N[C@@H](CCCCN)C(=O)N[C@H](C(=O)N[C@@H](Cc1c[nH]c2ccccc12)C(=O)N[C@@H](Cc1ccccc1)C(N)=O)[C@@H](C)O` [191-223], the “MIC (minimal inhibitory concentration needed to inhibit bacterial growth)” value in series [1] was 41 µg/mL (≈ 10.2 µM). The “Hemolysis (peptide concentration causing 50% hemolysis)” value with guinea pig erythrocytes worked out at 0.15 mg/mL.
`CC[C@H](C)[C@H](NC(=O)[C@H](CCCNC(=N)N)NC(=O)[C@H](CC(C)C)NC(=O)[C@H](CCC(N)=O)NC(=O)[C@H](CCCNC(=N)N)NC(=O)CNC(=O)[C@H](CC(C)C)NC(=O)[C@H](Cc1c[nH]c2ccccc12)NC(=O)[C@H](CO)NC(=O)[C@@H](NC(=O)[C@@H](NC(=O)[C@H](CCCNC(=N)N)NC(=O)[C@H](C)NC(=O)[C@H](C)NC(=O)CNC(=O)[C@H](CCC(N)=O)NC(=O)[C@H](CCCNC(=N)N)NC(=O)CCCC[C@@H]1SC[C@@H]2NC(=O)N[C@@H]21)C(C)C)[C@@H](C)O)C(=O)N[C@@H](C)C(=O)NCC(=O)N[C@@H](CCCCN)C(=O)N[C@@H](CCCNC(=N)N)C(=O)N[C@@H](CC(C)C)C(=O)N[C@@H](CCC(=O)O)C(=O)NCC(=O)N[C@@H](CCCNC(=N)N)C(=O)N[C@@H](CO)C(=O)N[C@@H](CCCCN)C(N)=O` [194-220]: the “MIC (minimal inhibitory concentration needed to inhibit bacterial growth)” value in series [1] was 50 µg/mL (≈ 15.3 µM). Moreover, the “Peptide concentration that inhibits cell growth” value in the series on HeLa cells (HeLa, 75 minutes incubation, growth checked after 3 to 6 days) stood at 40 µM; with EBTr cells (EBTr, 75 minutes incubation, growth checked after 3 to 6 days) it was 60 µM. Also, in series [2], the “Concentration at which biotinylated peptide was still (faintly) detectable” value is on record as 125 nM. Moreover, the “Concentration (translocation activity), optimization of E^rns peptide” value (shortened to “Concentration (translocation activity)”) in series [2] (setting [4]) came out at 1.0 µM. The “Hemolysis (peptide concentration causing 50% hemolysis)” value in the series with guinea pig erythrocytes was 0.26 mg/mL.
Turning to `CC(C)C[C@H](NC(=O)[C@H](CCC(N)=O)NC(=O)[C@H](CCCCN)NC(=O)CNC(=O)[C@H](CC(C)C)NC(=O)[C@H](Cc1c[nH]c2ccccc12)NC(=O)[C@@H](NC(=O)[C@@H](NC(=O)[C@H](CC(C)C)NC(=O)[C@H](CCCCN)NC(=O)[C@H](C)NC(=O)[C@@H](NC(=O)CNC(=O)[C@H](CCC(N)=O)NC(=O)[C@H](CCCNC(=N)N)NC(=O)[C@H](C)NC(=O)CNC(=O)[C@H](CCC(=O)O)NC(=O)CCCC[C@@H]1SC[C@@H]2NC(=O)N[C@@H]21)[C@@H](C)O)[C@@H](C)O)[C@@H](C)O)C(=O)NCC(=O)N[C@H](C(=O)N[C@@H](C)C(=O)NCC(=O)N[C@@H](CCCCN)C(=O)N[C@@H](CCCCN)C(=O)N[C@@H](CC(C)C)C(=O)N[C@@H](CCC(=O)O)C(=O)N[C@@H](CC(N)=O)C(=O)N[C@@H](CCCCN)C(=O)N[C@@H](CO)C(=O)N[C@@H](CCCCN)C(=O)N[C@H](C(=O)N[C@@H](Cc1c[nH]c2ccccc12)C(=O)N[C@@H](Cc1ccccc1)C(=O)NCC(=O)N[C@@H](C)C(=O)N[C@@H](Cc1ccc(O)cc1)C(=O)N[C@@H](C)C(N)=O)[C@@H](C)O)[C@@H](C)O` [194-230] (Biotin-EGARQGTAKLTTWLGKQLGTAGKKLENKSKTWFGAYA-NH2), in series [1], the “MIC (minimal inhibitory concentration needed to inhibit bacterial growth)” value turned out to be 93 µg/mL (≈ 22 µM). The “Hemolysis (peptide concentration causing 50% hemolysis)” value in the series on guinea pig erythrocytes amounted to 0.25 mg/mL.
Turning to `CC[C@H](C)[C@H](NC(=O)[C@H](CCCNC(=N)N)NC(=O)[C@H](CC(C)C)NC(=O)[C@H](CCC(N)=O)NC(=O)[C@H](CCCNC(=N)N)NC(=O)CNC(=O)[C@H](CC(C)C)NC(=O)[C@H](Cc1c[nH]c2ccccc12)NC(=O)[C@H](CO)NC(=O)[C@@H](NC(=O)[C@@H](NC(=O)[C@H](CCCNC(=N)N)NC(=O)[C@H](C)NC(=O)[C@H](C)NC(=O)CNC(=O)CCCC[C@@H]1SC[C@@H]2NC(=O)N[C@@H]21)C(C)C)[C@@H](C)O)C(=O)N[C@@H](C)C(=O)NCC(=O)N[C@@H](CCCCN)C(=O)N[C@@H](CCCNC(=N)N)C(=O)N[C@@H](CC(C)C)C(=O)N[C@@H](CCC(=O)O)C(=O)NCC(=O)N[C@@H](CCCNC(=N)N)C(=O)N[C@@H](CO)C(=O)N[C@@H](CCCCN)C(N)=O` [196-220], the “MIC (minimal inhibitory concentration needed to inhibit bacterial growth)” value in series [1] came to 25 µg/mL (≈ 8.35 µM). In addition, the “Hemolysis (peptide concentration causing 50% hemolysis)” value in the series with guinea pig erythrocytes came to 0.16 mg/mL.
In the case of `CC[C@H](C)[C@H](NC(=O)[C@H](CCCNC(=N)N)NC(=O)[C@H](CC(C)C)NC(=O)[C@H](CCC(N)=O)NC(=O)[C@H](CCCNC(=N)N)NC(=O)CNC(=O)[C@H](CC(C)C)NC(=O)[C@H](Cc1c[nH]c2ccccc12)NC(=O)[C@H](CO)NC(=O)[C@@H](NC(=O)[C@@H](NC(=O)[C@H](CCCNC(=N)N)NC(=O)CCCC[C@@H]1SC[C@@H]2NC(=O)N[C@@H]21)C(C)C)[C@@H](C)O)C(=O)N[C@@H](C)C(=O)NCC(=O)N[C@@H](CCCCN)C(=O)N[C@@H](CCCNC(=N)N)C(=O)N[C@@H](CC(C)C)C(=O)N[C@@H](CCC(=O)O)C(=O)NCC(=O)N[C@@H](CCCNC(=N)N)C(=O)N[C@@H](CO)C(=O)N[C@@H](CCCCN)C(N)=O` [199-220], the “MIC (minimal inhibitory concentration needed to inhibit bacterial growth)” value in series [1] is 23 µg/mL (≈ 8.23 µM). The “Hemolysis (peptide concentration causing 50% hemolysis)” value in the series with guinea pig erythrocytes worked out at 0.18 mg/mL.
On the same counts, the results for `CC[C@H](C)[C@H](NC(=O)[C@H](CCCNC(=N)N)NC(=O)[C@H](CC(C)C)NC(=O)[C@H](CCC(N)=O)NC(=O)[C@H](CCCNC(=N)N)NC(=O)CNC(=O)[C@H](CC(C)C)NC(=O)[C@H](Cc1c[nH]c2ccccc12)NC(=O)[C@H](CO)NC(=O)CCCC[C@@H]1SC[C@@H]2NC(=O)N[C@@H]21)C(=O)N[C@@H](C)C(=O)NCC(=O)N[C@@H](CCCCN)C(=O)N[C@@H](CCCNC(=N)N)C(=O)N[C@@H](CC(C)C)C(=O)N[C@@H](CCC(=O)O)C(=O)NCC(=O)N[C@@H](CCCNC(=N)N)C(=O)N[C@@H](CO)C(=O)N[C@@H](CCCCN)C(N)=O` [202-220] are 179 µg/mL (≈ 73.5 µM) and greater than 0.33 mg/mL.
For `CC[C@H](C)[C@H](NC(=O)[C@H](CCCNC(=N)N)NC(=O)[C@H](CC(C)C)NC(=O)[C@H](CCC(N)=O)NC(=O)[C@H](CCCNC(=N)N)NC(=O)CNC(=O)CCCC[C@@H]1SC[C@@H]2NC(=O)N[C@@H]21)C(=O)N[C@@H](C)C(=O)NCC(=O)N[C@@H](CCCCN)C(=O)N[C@@H](CCCNC(=N)N)C(=O)N[C@@H](CC(C)C)C(=O)N[C@@H](CCC(=O)O)C(=O)NCC(=O)N[C@@H](CCCNC(=N)N)C(=O)N[C@@H](CO)C(=O)N[C@@H](CCCCN)C(N)=O` [205-220], the “MIC (minimal inhibitory concentration needed to inhibit bacterial growth)” value in series [1] is greater than 500 µg/mL. The “Concentration (translocation activity)” value in series [2] (setting [4]) amounted to 1.0 µM. Moreover, the “Hemolysis (peptide concentration causing 50% hemolysis)” value with guinea pig erythrocytes is greater than 0.33 mg/mL.
Turning to “$ENARQGAARVTSWLGRQLRIAGKRLEGRSKTWFGAYA# [191-227]”, the “Peptide concentration that inhibits cell growth” value with HeLa cells was determined as 50 µM. Further, in series [2], the “Time to optimal fluorescence” value turned out to be 30 min and the “Translocation activity (in words)” value is “penetrated inside all cell types”. In the series with EBTr cells, the “Peptide concentration that inhibits cell growth” value amounted to 50 µM. In addition, the “Binding to fixed cells” value in series [3] is “able to bind to all tested cell types”.
Take “Biotin-RSRGRLRRGAIRLQRG-Lysine (MTT)- broomacetic acid [A941]”: in the series on skin of a live pig, the “Accumulation in the skin compared with MDK-20” value is “Much more accumulation in the skin”. Moreover, in series [2], the “Concentration (translocation activity)” value came out at 0.03 µM and the “Translocation activity (in words)” value is “higher translocation activity compared with the original MDK-20”.
